Test results taken from ChEMBL document CHEMBL5360558, “Molecular design, synthesis and anticancer activity of new thiopyrano[2,3-d]thiazoles based on 5-hydroxy-1,4-naphthoquinone (juglone)” (Eur J Med Chem, 2023).

What was measured:
PC-3 = assay: Growth inhibition against human PC-3 cells assessed as lethal concentration incubated for 48 hrs by sulforhodamine B spectrophotometric assay; format: functional; details: read-out: LC50 (the source's name)
K562 = assay: Growth inhibition against human K562 cells assessed as total growth inhibitory concentration incubated for 48 hrs by sulforhodamine B spectrophotometric assay; format: functional
SF-268 [1] = assay: Growth inhibition against human SF-268 cells assessed as total growth inhibitory concentration incubated for 48 hrs by sulforhodamine B spectrophotometric assay; format: functional
SF-268 [2] = assay: Growth inhibition against human SF-268 cells assessed as lethal concentration incubated for 48 hrs by sulforhodamine B spectrophotometric assay; format: functional; details: read-out: LC50 (the source's name)
CCRF-CEM [3] = assay: Induction of cell cycle arrest in human CCRF-CEM cells assessed as accumulation of cells at G2/M phase at 4.14 uM incubated for 24 hrs by propidium iodide staining based flow cytometry analysis (reference value: 20.24 +/- 0.25%); format: functional
SN12C [4] = assay: Growth inhibition against human SN12C cells assessed as lethal concentration incubated for 48 hrs by sulforhodamine B spectrophotometric assay; format: functional; details: read-out: LC50 (the source's name)
UACC-257 = assay: Growth inhibition of human UACC-257 cells incubated for 48 hrs by sulforhodamine B spectrophotometric assay; format: functional
NCI-H322M = assay: Growth inhibition against human NCI-H322M cells assessed as lethal concentration incubated for 48 hrs by sulforhodamine B spectrophotometric assay; format: functional; details: read-out: LC50 (the source's name)
SN12C [5] = assay: Growth inhibition against human SN12C cells assessed as total growth inhibitory concentration incubated for 48 hrs by sulforhodamine B spectrophotometric assay; format: functional
[6] = Acute toxicity in C57BL/6 mouse assessed as ratio of liver weight to body weight at 20 mg/kg,ip administration and observed after 22 days (reference value: 5.22 +/- 0.42); format: organism-based; details: in vivo, 528 h, time 22 day
Malme-3M [7] = assay: Growth inhibition against human Malme-3M cells assessed as total growth inhibitory concentration incubated for 48 hrs by sulforhodamine B spectrophotometric assay; format: functional
OVCAR-5 [8] = assay: Growth inhibition against human OVCAR-5 cells assessed as lethal concentration incubated for 48 hrs by sulforhodamine B spectrophotometric assay; format: functional; details: read-out: LC50 (the source's name)
SK-OV-3 = assay: Growth inhibition of human SK-OV-3 cells incubated for 48 hrs by sulforhodamine B spectrophotometric assay; format: functional
SR = assay: Growth inhibition against human SR cells assessed as lethal concentration incubated for 48 hrs by sulforhodamine B spectrophotometric assay; format: functional; details: read-out: LC50 (the source's name)
NCI-H226 = assay: Growth inhibition of human NCI-H226 cells incubated for 48 hrs by sulforhodamine B spectrophotometric assay; format: functional
[9] = Acute toxicity in C57BL/6 mouse assessed as ratio of lung weight to body weight at 20 mg/kg,ip administration and observed after 22 days (reference value: 0.8 +/- 0.09); format: organism-based; details: in vivo, 528 h, time 22 day
MCF7 = assay: Growth inhibition against human MCF7 cells assessed as lethal concentration incubated for 48 hrs by sulforhodamine B spectrophotometric assay; format: functional; details: read-out: LC50 (the source's name)
IGROV-1 [10] = assay: Growth inhibition of human IGROV-1 cells incubated for 48 hrs by sulforhodamine B spectrophotometric assay; format: functional
[11] = Antileukemic activity against human CLL cell assessed as cell growth inhibition incubated for 72 hrs in presence of BST by MTT assay; format: functional, cell-based
SK-MEL-5 = assay: Growth inhibition against human SK-MEL-5 cells assessed as total growth inhibitory concentration incubated for 48 hrs by sulforhodamine B spectrophotometric assay; format: functional
HOP-62 = assay: Growth inhibition against human HOP-62 cells assessed as lethal concentration incubated for 48 hrs by sulforhodamine B spectrophotometric assay; format: functional; details: read-out: LC50 (the source's name)
[12] = Cytotoxicity against mouse NIH3T3 cells assessed as cell growth inhibition incubated for 72 hrs by MTT assay; format: toxicity, cell-based
IGROV-1 [13] = assay: Growth inhibition against human IGROV-1 cells assessed as lethal concentration incubated for 48 hrs by sulforhodamine B spectrophotometric assay; format: functional; details: read-out: LC50 (the source's name)
LOX IMVI = assay: Growth inhibition of human LOX IMVI cells incubated for 48 hrs by sulforhodamine B spectrophotometric assay; format: functional
HOP-92 = assay: Growth inhibition against human HOP-92 cells assessed as lethal concentration incubated for 48 hrs by sulforhodamine B spectrophotometric assay; format: functional; details: read-out: LC50 (the source's name)
HCC 2998 = assay: Growth inhibition of human HCC 2998 cells incubated for 48 hrs by sulforhodamine B spectrophotometric assay; format: functional
M14 = assay: Anticancer activity against human M14 cells assessed as cell growth at 10 uM incubated for 48 hrs by sulforhodamine B assay; format: functional; details: read-out: Activity
[14] = Acute toxicity in C57BL/6 mouse assessed as lymphocyte count at 20 mg/kg,ip administration and observed after 22 days; format: organism-based; details: in vivo, 528 h, time 22 day
CCRF-CEM [15] = assay: Induction of cell cycle arrest in human CCRF-CEM cells assessed as accumulation of cells at higher G2/M phase at 4.14 uM incubated for 24 hrs by propidium iodide staining based flow cytometry analysis (reference value: 10.09 +/- 0.14%); format: functional
Malme-3M [16] = assay: Anticancer activity against human Malme-3M cells assessed as cell growth at 10 uM incubated for 48 hrs by sulforhodamine B assay; format: functional; details: read-out: Activity
OVCAR-5 [17] = assay: Growth inhibition against human OVCAR-5 cells assessed as total growth inhibitory concentration incubated for 48 hrs by sulforhodamine B spectrophotometric assay; format: functional
MDA-MB-231 = assay: Induction of apoptosis in human MDA-MB-231 cells assessed as increase in caspase-9 level at 10 uM incubated for 24 hrs by flow cytometry analysis; format: functional
KB 3-1 = assay: Cytotoxicity against human KB 3-1 cells assessed as cell growth inhibition incubated for 72 hrs by MTT assay; format: functional, cell-based; details: KB 3-1, 72 h
RPMI-8226 = assay: Growth inhibition of human RPMI-8226 cells incubated for 48 hrs by sulforhodamine B spectrophotometric assay; format: functional
UO-31 [18] = assay: Growth inhibition of human UO-31 cells incubated for 48 hrs by sulforhodamine B spectrophotometric assay; format: functional
T47D = assay: Growth inhibition of human T47D cells incubated for 48 hrs by sulforhodamine B spectrophotometric assay; format: functional
UO-31 [19] = assay: Growth inhibition against human UO-31 cells assessed as total growth inhibitory concentration incubated for 48 hrs by sulforhodamine B spectrophotometric assay; format: functional
MDA-MB-435 = assay: Growth inhibition against human MDA-MB-435 cells assessed as total growth inhibitory concentration incubated for 48 hrs by sulforhodamine B spectrophotometric assay; format: functional
MDA-MB-468 = assay: Growth inhibition of human MDA-MB-468 cells incubated for 48 hrs by sulforhodamine B spectrophotometric assay; format: functional
[20] = Acute toxicity in C57BL/6 mouse assessed as ratio of neutrophil to lymphocyte count at 20 mg/kg,ip administration and observed after 22 days; format: organism-based; details: in vivo, 528 h, time 22 day
U-251 = assay: Growth inhibition against human U-251 cells assessed as lethal concentration incubated for 48 hrs by sulforhodamine B spectrophotometric assay; format: functional; details: read-out: LC50 (the source's name)
A549 = assay: Growth inhibition of human A549 cells incubated for 48 hrs by sulforhodamine B spectrophotometric assay; format: functional
[21] = Acute toxicity in C57BL/6 mouse assessed as ratio of spleen weight to body weight at 20 mg/kg,ip administration and observed after 22 days (reference value: 0.53 +/- 0.18); format: organism-based; details: in vivo, 528 h, time 22 day
Hs-578T = assay: Growth inhibition against human Hs-578T cells assessed as lethal concentration incubated for 48 hrs by sulforhodamine B spectrophotometric assay; format: functional; details: read-out: LC50 (the source's name)

O=C1C2=C(C(=O)c3c(O)cccc31)C(c1ccco1)c1sc(=O)[nH]c1S2 (centres undefined)
CC50 (PC-3): > 100 µM | TGI (K562): > 100 µM | TGI (SF-268 [1]): 19.2 µM | CC50 (SF-268 [2]): > 100 µM | Activity (CCRF-CEM [3]): 23.82% | CC50 (SN12C [4]): 6.99 µM | GI50 (UACC-257): 1.57 µM | CC50 (NCI-H322M): 5.74 µM | TGI (SN12C [5]): 3.49 µM | Ratio [6]: 4.54 | TGI (Malme-3M [7]): 2 µM | CC50 (OVCAR-5 [8]): 9.85 µM | GI50 (SK-OV-3): 15.5 µM | CC50 (SR): > 100 µM | GI50 (NCI-H226): 2.18 µM | Ratio [9]: 0.82 | CC50 (MCF7): 8.04 µM | GI50 (IGROV-1 [10]): 2.51 µM | IC50 [11]: 8.24 µM | TGI (SK-MEL-5): 3 µM | CC50 (HOP-62): 6.86 µM | IC50 at 72 h [12]: 6.07 µM | CC50 (IGROV-1 [13]): 38 µM | GI50 (LOX IMVI): 2.21 µM | CC50 (HOP-92): 32.5 µM | GI50 (HCC 2998): 2.5 µM | growth at 10 µM (M14): -97.6% | Activity [14]: 67.05% | Activity (CCRF-CEM [15]): 12.23% | growth at 10 µM (Malme-3M [16]): -92.3% | TGI (OVCAR-5 [17]): 4.58 µM | Activity (MDA-MB-231): 32.6% | IC50 (KB 3-1): 0.75 µM | GI50 (RPMI-8226): 2.62 µM | GI50 (UO-31 [18]): 2.56 µM | GI50 (T47D): 2.87 µM | TGI (UO-31 [19]): 13.5 µM | TGI (MDA-MB-435): 2.47 µM | GI50 (MDA-MB-468): 2.01 µM | Ratio [20]: 0.465 | CC50 (U-251): 35.7 µM | GI50 (A549): 1.78 µM | Ratio [21]: 0.51 | CC50 (Hs-578T): > 100 µM
